From US8030341B2, “Dmt-derivative compounds and related compositions and methods of use” (priority 2005, dated 2011)
Like-named read-outs stand apart in the source and are kept apart here.

What was measured:
δ-opioid receptor [1] = molecular target: T1, δ-opioid receptor (Rattus norvegicus, UniProt P33533); conditions: Table 3; reference rows marked e, f, g (no SE, no n); cited from earlier work
T1 construct: from tissue; host or cells: rat brain P2 synaptosomal membranes (Sprague-Dawley)

μ-opioid receptor [2] = molecular target: T2, μ-opioid receptor (Rattus norvegicus, UniProt P33535); conditions: Table 3, reference rows marked e, f, cited from earlier work
T2 construct: from tissue; host or cells: rat brain P2 synaptosomal membranes (Sprague-Dawley)

δ-opioid receptor [3] = molecular target: T1, δ-opioid receptor; experiment: opioid receptor binding competition assay, rat brain P2 synaptosomal membranes (δ); conditions: Table 3; versus [3H]DPDPE; rat brain synaptosomes; read-out: Ki(δ)
Experimental: (§1) Synaptosomes were preincubated to remove endogenous opioids, washed in excess ice-cold buffer containing protease inhibitor and stored in a glycerol-containing buffer with protease inhibitor at −80° C. as described in Lazarus et al., J. Med. Chem. 34:1350-55 (1991). […] After incubation, the radiolabeled membranes were rapidly filtered on Whatman GF/C glass fiber filters presoaked in 0.1% polyethylenimine in order to optimize the signal-to-noise ratio, washed with ice-cold BSA buffer, and dried at 75-80° C. Radioactivity was determined using EcoLume (ICN, Costa Mesa, Calif.). All compounds were analyzed in duplicate using 5-8 peptide dosages and several synaptosomal preparations in independent repetitions to ensure statistical significance. The affinity constants (Ki) were calculated according to Cheng and Prusoff (Cheng et al., Biochem. Pharmacol., 22: 3099-3108 ([…])).

[4] = system: morphine-induced analgesia; experiment: inhibition of morphine-induced analgesia after intracerebroventricular administration; type: in vivo; conditions: mice
μ-opioid receptor [5] = molecular target: μ-opioid receptor (Cavia porcellus, UniProt P97266); experiment: guinea pig ileum (GPI) bioassay; type: cell-based; conditions: Table 4
Experimental: The myenteric plexus longitudinal muscle preparations (2-3 cm segments) from the small intestine of male Hartley strain guinea pigs (GP1) measured μ-opioid receptor agonism and a single mouse vas deferens (MVD) was used to determine δ-opioid receptor agonism as described in Sasaki et al. Bioorg. […] The isolated tissues were suspended in organ baths containing balanced salt solutions in a physiological buffer, pH 7.5. Agonists were tested for the inhibition of electrically evoked contraction and expressed as IC50 (nM) obtained from the dose-response curves.

μ-opioid receptor [6] = molecular target: T2, μ-opioid receptor; experiment: opioid receptor binding competition assay, rat brain P2 synaptosomal membranes (μ); conditions: Table 3
Experimental: as §1

δ-opioid receptor [7] = molecular target: T3, δ-opioid receptor (Mus musculus, UniProt P32300); experiment: mouse vas deferens (MVD) bioassay; type: cell-based; conditions: Table 4
T3 construct: from tissue; host or cells: isolated mouse vas deferens
Excerpt: Bioorg. Med. Chem., 11: 675-678 (2003). The isolated tissues were suspended in organ baths containing balanced salt solutions in a physiological buffer, pH 7.5. […]

Sequence of μ-opioid receptor (Cavia porcellus, UniProt P97266) (P97266 whole entry, looked up): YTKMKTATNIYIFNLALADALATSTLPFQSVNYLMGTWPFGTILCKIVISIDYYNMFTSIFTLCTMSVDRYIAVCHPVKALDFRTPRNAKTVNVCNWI
T2 sequence (P33535 whole entry): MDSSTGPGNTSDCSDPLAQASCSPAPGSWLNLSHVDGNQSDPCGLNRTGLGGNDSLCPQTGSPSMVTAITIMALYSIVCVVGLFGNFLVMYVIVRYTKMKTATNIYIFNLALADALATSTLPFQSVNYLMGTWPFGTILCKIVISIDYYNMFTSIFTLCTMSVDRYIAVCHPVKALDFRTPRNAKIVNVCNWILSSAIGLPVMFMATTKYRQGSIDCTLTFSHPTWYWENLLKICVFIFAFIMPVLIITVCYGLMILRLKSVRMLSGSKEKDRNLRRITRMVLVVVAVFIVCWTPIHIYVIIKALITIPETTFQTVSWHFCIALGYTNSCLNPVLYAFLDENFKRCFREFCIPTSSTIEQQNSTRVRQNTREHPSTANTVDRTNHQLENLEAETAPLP
T1 sequence (P33533 whole entry): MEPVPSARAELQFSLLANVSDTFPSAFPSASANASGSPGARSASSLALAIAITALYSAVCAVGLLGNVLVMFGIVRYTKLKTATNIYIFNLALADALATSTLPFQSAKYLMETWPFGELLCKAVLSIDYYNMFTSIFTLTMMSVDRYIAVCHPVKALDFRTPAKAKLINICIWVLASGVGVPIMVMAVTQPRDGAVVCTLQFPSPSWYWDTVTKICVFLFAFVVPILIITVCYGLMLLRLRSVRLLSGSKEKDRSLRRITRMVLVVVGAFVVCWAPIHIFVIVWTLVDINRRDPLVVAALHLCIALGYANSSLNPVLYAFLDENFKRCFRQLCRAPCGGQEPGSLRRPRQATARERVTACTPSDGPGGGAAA
T3 sequence (P32300 whole entry): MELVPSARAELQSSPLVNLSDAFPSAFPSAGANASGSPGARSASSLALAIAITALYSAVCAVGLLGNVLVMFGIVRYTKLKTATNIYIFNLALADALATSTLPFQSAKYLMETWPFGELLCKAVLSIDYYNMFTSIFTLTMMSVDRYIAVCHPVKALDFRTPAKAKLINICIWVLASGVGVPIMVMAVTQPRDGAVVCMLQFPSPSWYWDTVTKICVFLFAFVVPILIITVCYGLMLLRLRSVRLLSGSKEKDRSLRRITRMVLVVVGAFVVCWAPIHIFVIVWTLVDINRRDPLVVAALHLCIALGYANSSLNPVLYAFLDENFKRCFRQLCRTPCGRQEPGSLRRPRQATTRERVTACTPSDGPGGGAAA

| SMILES | Ki (δ-opioid receptor [1]) [nM] | Ki (μ-opioid receptor [2]; g (no SE, no n)) [nM] | Ki(δ)/Ki(μ) (μ-opioid receptor [2]; g) | Ki (δ-opioid receptor [3]) [nM] | inhibition of morphine-induced analgesia [4] | IC50 (μ-opioid receptor [5]; agonism, read-out: GPI) [µM] | pA2(μ)/pA2(δ) (μ-opioid receptor [5]; selectivity of antagonism) | GPI pA2 (μ-opioid receptor [5]; μ antagonism) | Ki(δ)/Ki(μ) (μ-opioid receptor [6]; selectivity ratio) | Ki (μ-opioid receptor [6]; versus [3H]DAMGO, rat brain synaptosomes, read-out: Ki(μ)) [nM] | IC50 (δ-opioid receptor [7]; agonism, read-out: MVD) [µM] | MVD pA2 (δ-opioid receptor [7]; δ antagonism) |
| --- | --- | --- | --- | --- | --- | --- | --- | --- | --- | --- | --- | --- |
| Cc1cc(O)cc(C)c1CC(N)C(=O)NCCCc1cnc(CCCNC(=O)C(N)Cc2c(C)cc(O)cc2C)c(=O)[nH]1 (stereo not drawn) [Compound 37, 3,6-Bis-[Dmt-NH-propyl]pyrazinone] | 13.2 | 0.042 | 307 | – | – | – | – | – | – | – | – | – |
| C=CCNC(Cc1c(C)cc(O)cc1C)C(=O)NCCCCCCNC(=O)C(Cc1c(C)cc(O)cc1C)NCC=C (stereo not drawn) [Compound 33, Bis-[(N-allyl)Dmt-NH]hexyl] | – | – | – | 77.8 ± 14 | inhibit morphine-induced analgesia | > 10 | 2.5 | 7.23 | 11 | 6.94 ± 1.4 | > 10 | 6.83 |
